# Patent US6689762B1, “Composition and methods for treatment of HIV infection” (Enzon Pharmaceuticals, Inc., priority 1998, dated 2004)
# Several values for one entry are separate records, joined by “and”; a condition that tells them apart may be missing. Equal values may be shown once.
# How the values were obtained:
# [1] = tested on: HIV-RNA in supernatant of HIV-1 infected CEM/0 T-cells; assay: HIV-1 quantitative RNA assay (HIV-1 Monitor) in supernatants of CEM/0 T-cells; format: cell-based; set-up: inhibition of HIV-RNA in the supernatants in comparison to untreated control / % OF CONTROL / % control: concentration or dose not given beside the values
# From the text: It should be noted that “PEG” in Table 3 represents PEG-ASNase.
# Materials and Methods: The cell line used for these studies is CEM/0, a human T-cell leukemic cell line. PEG-ASNase (ONCASPAR) is provided by Rhone-Poulenc Rorer. Saquinavin is commercially available. AZT is purchased from Sigma. MISID, a ribonucleotide reductase inhibitor, is as described in Nandy P, Lien E J, Avramis V I, Med. Chem. Res. 1995, 5:664-679. RPMI-1640 media (Irvine Scientific, Irvine, Calif.), is enriched with 10% Fetal Calf Serum (Gemini Biosource, Calabasas, Calif.), 5% 1M Hepes Buffer solution and 5% Non-essential amino acids (Irvine Scientific, Irvine, Calif.). The drug concentrations used are as follows:
# Briefly, 3×10^6 cells/ml are stimulated with PHA+ media for 48 hours at 37° C. with 5% CO2. Also, the same number of cells are incubated in PHA free media for 48 hours to serve as the negative control. At this point the cells are inoculated with the HIV-1 virus as per standard protocol. Note that in this experiment, the HIV containing supernatant from the PHA-stimulated healthy human peripheral mononuclear cells (PBMC) is not removed from the PHA-stimulated CEM/0 cell culture. […] These virus particles are continuously released by already infected T-cells and/or lymph nodes of patients.
# The experimental drugs are added to the cells in the appropriate concentrations at the same time as viral inoculation or 90 minutes after the viral incubation, a time sufficient for the T-cells to be infected and start producing new HIV-1 virus particles. The control cells are resuspended in drug-free media for the duration of the exposure which lasted seven days. Aliquots of media from the control flasks only are obtained on day 5 post Rx. At day seven, three 1 ml each, aliquots of media are removed from the flasks and stored under liquid nitrogen. In addition, the remaining cells are split into three and then pelleted and stored at −80° C. Supernatant specimens are obtained form these T-cell cultures and are frozen at −80° C. The samples produced from this experiment are itemized. The cell pellets of the cellular cultures (see Experiment 9) from the 90 minute viral incubation flasks are assayed for HIV-RNA quantitative assay using a kit for the assay, non-radioactive. […] The standard curve is determined and the HIV-RNA levels for the experimental samples are calculated and reported previously.
# This experiment is carried out using a similar procedure, and the same concentrations of materials as in Experiment 10, however the exposure of HIV-RNA in T-cell supernatants to a combination of PEG-ASNase, Saquinavir, AZT and 3TC is measured. It should be noted that “PEG” in Table 10 represents PEG-ASNase.
# [2] = tested on: HIV-RT levels of HIV-1 infected CEM/0 cell pellets; assay: HIV-RT ELISA (Reverse Transcriptase Assay, non-radioactive) in cell pellets of HIV-1 infected CEM/0 T-cells; format: cell-based; settings: Table 9
# From the text: The following is a general procedure for the HIV-reverse transcriptase assay:
# The cell line used for these studies is CCRF/CEM/O, a human T-leukemic cell line. PEG-ASNase (ONCASPAR) is provided by Rhone-Poulenc Rorer. Saquinavir is commercially available. RPMI-1640 media (Irvine Scientific, Irvine, Calif.) is enriched with 10% Fetal Calf Serum (Gemini Biosource, Calabasas, Calif.), 5% 1M Hepes Buffer solution and 5% Non-essential amino acids (Irvine Scientific, Irvine, Calif.). The drug concentrations used are as follows:
# Briefly, 2×10^6 cells/ml are stimulated with PHA+ media for 48 hours at 37° C. with 5% CO2. Also, the same number of cells are incubated in PHA(phytohemagglutinin) free media for 48 hours to serve as the negative control. At this point the cells are inoculated with the HIV-1 virus as per standard protocol. PEG-ASNase and/or Saquinavir are added to the cells in the appropriate concentrations (see above). The control cells are resuspended in drug-free media for the duration of the exposure which lasted seven days. At day five, two 1 ml aliquots of media are removed from the flasks and stored under liquid nitrogen. At day seven, two more 1 ml aliquots of media are removed from the flasks and stored under liquid nitrogen. In addition, the remaining cells are pelleted and stored at −80° C.
# The samples produced from this experiment are itemized and then assayed for HIV-RT using the Reverse Transcriptase Assay, non-radioactive (Boehringer Mannheim). The standard curve is determined and the HIV-RT levels for the experimental samples are calculated.
# This experiment is carried out using a similar procedure, and the same concentrations of materials as in Experiment 7, however the exposure of the HIV virus in T-cell pellets to PEG-ASNase and Saquinavir alone, and in combination is measured. It should be noted that “PEG” in Table 2a represents PEG-ASNase. […]
structure (smiles),measurement,setting,value
"Nc1ccn([C@@H]2CS[C@H](CO)O2)c(=O)n1 [3TC, lamivudine]",MEAN,[1]; Table 10,1752 copies/mL
same,N*,"[1]; Table 10, per specimen, day 7 post Rx, PEG 0.400 IU/ml, SAQ 25 uM, AZT 1 uM, 3TC 1 uM, combinations PEG 0.233 IU/ml + SAQ 14.52 uM",1700 copies/mL and 1836 copies/mL and 1719 copies/mL
same,% OF CONTROL,[1]; Table 10 and Experiment 11,39.58%
same,MEAN X3 (HIV-RT),[2],0.004 ng/well
